Earlier results as cited in patent US3956274A, “New compound 6'-deoxy-'-substituted or unsubstituted amino-lividomycins and the production thereof” (Zaidan Hojin Biseibutsu Kagaku Kenkyu Kai, priority 1973, dated 1976).

Tested on: strains producing the phosphotransferase
Conditions: in words; cited from earlier work

NC[C@@H]1CC[C@@H](N)[C@@H](O[C@H]2[C@H](O[C@@H]3O[C@H](CO)[C@@H](O)[C@H]3O)[C@@H](O)[C@H](N)C[C@@H]2N)O1 [3', 4'-dideoxyribostamycin]
inactivation by some strains producing the phosphotransferase: can be inactivated by some strains producing the phosphotransferase
